# Measurements published in patent US9169254B2, “Spiroimidazolone derivative” (Chugai Seiyaku Kabushiki Kaisha, priority 2009, dated 2015).
# Target: T1, human PTH1 receptor (Homo sapiens, UniProt Q03431)
# T1 sequence (Q03431 27-593): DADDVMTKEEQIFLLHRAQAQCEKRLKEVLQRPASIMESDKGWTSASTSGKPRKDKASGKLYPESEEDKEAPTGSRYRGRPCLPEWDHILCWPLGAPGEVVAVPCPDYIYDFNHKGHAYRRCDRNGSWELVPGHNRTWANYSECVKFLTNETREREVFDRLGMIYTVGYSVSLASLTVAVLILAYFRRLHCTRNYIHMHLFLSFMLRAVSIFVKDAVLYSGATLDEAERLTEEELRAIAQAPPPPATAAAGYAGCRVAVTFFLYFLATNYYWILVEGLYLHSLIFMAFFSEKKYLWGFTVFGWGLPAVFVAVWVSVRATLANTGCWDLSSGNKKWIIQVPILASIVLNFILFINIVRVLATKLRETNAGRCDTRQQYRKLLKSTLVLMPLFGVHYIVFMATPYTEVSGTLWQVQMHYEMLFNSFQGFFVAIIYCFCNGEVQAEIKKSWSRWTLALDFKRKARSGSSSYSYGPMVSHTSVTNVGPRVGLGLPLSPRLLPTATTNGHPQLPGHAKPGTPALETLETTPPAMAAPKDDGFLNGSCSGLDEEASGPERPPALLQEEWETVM
# Assay: In vitro cAMP signal activity in HKRK-B7 cells (LLC-PK1 cells overexpressing the human PTH1 receptor)
# Assay type: cell-based
# Conditions: 0.1 µM
row,Compound,cAMP production activity (%)
1,"Cc1cc(S(=O)(=O)NCC(F)(F)C(F)(F)C(F)(F)F)ccc1CCS(=O)(=O)N1CCC2(CC1)N=C(c1cccc(C(F)(F)F)c1)NC2=O [Compound 667, N-(2,2,3,3,4,4,4-Heptafluoro-butyl)-3-methyl-4-{2-[4-oxo-2-(3-trifluoromethyl-phenyl)-1,3,8-triaza-spiro[4.5]dec-1-ene-8-sulfonyl]-ethyl}-benzenesulfonamide]",40

# Same assay, conditions: HKRK-B7 cells; compound at 1×10^−3 M; cAMP produced as percentage of that produced by hPTH(1-34) at 100 nM
row,Compound,cAMP production activity (%)
1,"CCCCCCCCCC1=NC2(CCN(S(=O)(=O)CCc3ccc(N4CCOCC4=O)cc3C)CC2)C(=O)N1 [Compound 657, 8-{2-[2-Methyl-4-(3-oxo-morpholin-4-yl)-phenyl]-ethanesulfonyl}-2-nonyl-1,3,8-triaza-spiro[4.5]dec-1-en-4-one]",124
2,"CC(C)COC(=O)NCc1ccc(CCS(=O)(=O)N2CCC3(CC2)N=C(C2CCCCC2)NC3=O)cc1 [Compound 658, {4-[2-(2-Cyclohexyl-4-oxo-1,3,8-triaza-spiro[4.5]dec-1-ene-8-sulfonyl)-ethyl]-benzyl}-carbamic acid isobutyl ester]",84
3,"O=C(CNc1ccc(CCS(=O)(=O)N2CCC3(CC2)N=C(C2CCCCC2)NC3=O)c(C(F)(F)F)c1)NCCCCO [Compound 660, 2-{4-[2-(2-cyclohexyl-4-oxo-1,3,8-triaza-spiro[4.5]dec-1-ene-8-sulfonyl)-ethyl]-3-trifluoromethyl-phenylamino}-N-(4-hydroxy-butyl)-acetamide]",60
4,"O=C(Nc1ccc(CCS(=O)(=O)N2CCC3(CC2)N=C(C2CCCCC2)NC3=O)c(C(F)(F)F)c1)c1ccccc1 [Compound 662, N-{4-[2-(2-cyclohexyl-4-oxo-1,3,8-triaza-spiro[4.5]dec-1-ene-8-sulfonyl)-ethyl]-3-trifluoromethyl-phenyl}-benzamide]",23
5,"Cc1cc(NCC(=O)NCCN(C)C)ccc1CCS(=O)(=O)N1CCC2(CC1)N=C(c1cccc(OC(F)(F)F)c1)NC2=O [Compound 665, N-(2-Dimethylamino-ethyl)-2-(3-methyl-4-{2-[4-oxo-2-(3-trifluoromethoxy-phenyl)-1,3,8-triaza-spiro[4.5]dec-1-ene-8-sulfonyl]-ethyl}-phenylamino)-acetamide]",54
6,"Cc1cc(C(=O)N2C[C@@H](C)O[C@@H](C)C2)ccc1CCS(=O)(=O)N1CCC2(CC1)N=C(c1cccc(OC(F)(F)F)c1)NC2=O [Compound 666, 8-{2-[4-((2R,6S)-2,6-dimethyl-morpholine-4-carbonyl)-2-methyl-phenyl]-ethanesulfonyl}-2-(3-trifluoromethoxy-phenyl)-1,3,8-triaza-spiro[4.5]dec-1-en-4-one]",51
7,"CCCCCCCCCC1=NC2(CCN(S(=O)(=O)CCc3ccc(N4C(=O)CC[C@H]4CO)cc3C)CC2)C(=O)N1 [Compound 670, 8-{2-[4-((S)-2-Hydroxymethyl-5-oxo-pyrrolidin-1-yl)-2-methyl-phenyl]-ethanesulfonyl}-2-nonyl-1,3,8-triaza-spiro[4.5]dec-1-en-4-one]",123
8,"Cc1cc(N2CCN(CCO)C2=O)ccc1CCS(=O)(=O)N1CCC2(CC1)N=C(c1cccc(C(F)(F)F)c1)NC2=O [Compound 674, 8-(2-{4-[3-(2-Hydroxy-ethyl)-2-oxo-imidazolidin-1-yl]-2-methyl-phenyl}-ethanesulfonyl)-2-(3-trifluoromethyl-phenyl)-1,3,8-triaza-spiro[4.5]dec-1-en-4-one]",68

# Other lines, results leading:
row,cAMP production activity (%),Compound
1,14,"Cc1cc(N2C(C)(C)C(=O)NS2(=O)=O)cc(C)c1CCS(=O)(=O)N1CCC2(CC1)N=C(C1CCC(C)CC1)NC2=O (stereo not shown) [Compound 656, 8-{2-[4-(3,3-dimethyl-1,1,4-trioxo-1λ^6-[1,2,5]thiadiazolidin-2-yl)-2,6-dimethyl-phenyl]-ethanesulfonyl}-2-(4-methyl-cyclohexyl)-1,3,8-triaza-spiro[4.5]dec-1-en-4-one]"
2,46,"O=C(CO)NCc1ccc(CCS(=O)(=O)N2CCC3(CC2)N=C(C2CCCCC2)NC3=O)cc1 [Compound 659, N-{4-[2-(2-cyclohexyl-4-oxo-1,3,8-triaza-spiro[4.5]dec-1-ene-8-sulfonyl)-ethyl]-benzyl}-2-hydroxy-acetamide]"
3,45,"CC(C)COC(=O)Nc1ccc(CCS(=O)(=O)N2CCC3(CC2)N=C(C2CCCCC2)NC3=O)c(C(F)(F)F)c1 [Compound 661, {4-[2-(2-cyclohexyl-4-oxo-1,3,8-triaza-spiro[4.5]dec-1-ene-8-sulfonyl)-ethyl]-3-trifluoromethyl-phenyl}-carbamic acid isobutyl ester]"
4,27,"O=C1NC(C2CCCCC2)=NC12CCN(S(=O)(=O)CCc1ccc3[nH]c(=O)sc3c1)CC2 [Compound 663, 2-cyclohexyl-8-[2-(2-oxo-2,3-dihydro-benzothiazol-6-yl)-ethanesulfonyl]-1,3,8-triaza-spiro[4.5]dec-1-en-4-one]"
5,77,"CC(=O)NCCNS(=O)(=O)c1ccc(CCS(=O)(=O)N2CCC3(CC2)N=C(C2CCCCC2)NC3=O)c(C)c1 [Compound 664, N-(2-{4-[2-(2-cyclohexyl-4-oxo-1,3,8-triaza-spiro[4.5]dec-1-ene-8-sulfonyl)-ethyl]-3-methyl-benzenesulfonylamino}-ethyl)-acetamide]"
6,40,"COc1cccc(CCS(=O)(=O)N2CCC3(CC2)N=C([C@H]2CC[C@H](C)CC2)NC3=O)c1C [Compound 668, 8-[2-(3-Methoxy-2-methyl-phenyl)-ethanesulfonyl]-2-(4-methyl-cyclohexyl)-1,3,8-triaza-spiro[4.5]dec-1-en-4-one]"
7,58,"COc1c(N(C)C(=O)OC(C)(C)C)cc(C)c(CCS(=O)(=O)N2CCC3(CC2)N=C([C@H]2CC[C@H](C)CC2)NC3=O)c1C [Compound 669, (2-methoxy-3,5-dimethyl-4-{2-[2-(4-methyl-cyclohexyl)-4-oxo-1,3,8-triaza-spiro[4.5]dec-1-ene-8-sulfonyl]-ethyl}-phenyl)-methyl-carbamic acid tert-butyl ester]"
8,81,"Cc1cc2[nH]c(=O)oc2c(C)c1CCS(=O)(=O)N1CCC2(CC1)N=C([C@H]1CC[C@H](C)CC1)NC2=O [Compound 671, 8-[2-(5,7-Dimethyl-2-oxo-2,3-dihydro-benzoxazol-6-yl)-ethanesulfonyl]-2-(4-methyl-cyclohexyl)-1,3,8-triaza-spiro[4.5]dec-1-en-4-one]"
9,47,"COC(=O)NCCc1ccc(CCS(=O)(=O)N2CCC3(CC2)N=C(C2CCCCC2)NC3=O)cc1 [Compound 672, (2-{4-[2-(2-Cyclohexyl-4-oxo-1,3,8-triaza-spiro[4.5]dec-1-ene-8-sulfonyl)-ethyl]-phenyl}-ethyl)-carbamic acid methyl ester]"
10,27,"Cc1cc(CN(C)C(=O)OC(C)(C)C)ccc1CCS(=O)(=O)N1CCC2(CC1)N=C(C1CCCCC1)NC2=O [Compound 673, {4-[2-(2-cyclohexyl-4-oxo-1,3,8-triaza-spiro[4.5]dec-1-ene-8-sulfonyl)-ethyl]-3-methyl-benzyl}-methyl-carbamic acid tert-butyl ester]"
